One assay relates to T-47D. Put plainly: Caspase cascade activation assay (N-(Ac-DEVD)-N'-ethoxycarbonyl-R110 fluorogenic substrate) in T-47D cells. The conditions noted are these: T-47D human breast cancer cells, 24 h incubation; ratio of net RFU of compound to control. It counts as cell-based. How it is done: (§1) Human breast cancer cell lines T-47D and ZR-75-1 were grown according to media component mixtures designated by American Type Culture Collection +10% FCS (Invitrogen Corporation), in a 5% CO2−95% humidity incubator at 37° C. T-47D and ZR-75-1 cells were maintained at a cell density between 30 and 80% confluency at a cell density of 0.1 to 0.6×10^6 cells/mL. Cells were harvested at 600×g and resuspended at 0.65×10^6 cells/mL into appropriate media +10% FCS. An aliquot of 45 μL of cells was added to a well of a 96-well microtiter plate containing 5 μL of a 10% DMSO in RPMI-1640 media solution containing 0.16 to 10 μM of 4-(3-bromo-4,5-dimethoxyphenyl)-3-cyano-4H-indolo[4,5-b]pyran (Example 1) or other test compound (0.016 to 1 μM final). An aliquot of 45 μL of cells was added to a well of a 96-well microtiter plate containing 5 μL of a 10% DMSO in RPMI-1640 media solution without test compound as the control sample. The samples were mixed by agitation and then incubated at 37° C. for 24 h in a 5% CO2-95% humidity incubator. After incubation, the samples were removed from the incubator and 50 μL of a solution containing 20 μM of N-(Ac-DEVD)-N′-ethoxycarbonyl-R110 (SEQ ID No.:1) fluorogenic substrate (Cytovia, Inc.; U.S. Pat. No. 6,335,429), 20% sucrose (Sigma), 20 mM DTT (Sigma), 200 mM NaCl (Sigma), 40 mM Na PIPES buffer pH 7.2 (Sigma), and 500 μg/mL lysolecithin (Calbiochem) was added. The samples were mixed by agitation and incubated at room temperature. Using a fluorescent plate reader (Model 1420 Wallac Instruments), an initial reading (T=0) was made approximately 1-2 min after addition of the substrate solution, employing excitation at 485 nm and emission at 530 nm, to determine the background fluorescence of the control sample. After the 3 h incubation, the samples were read for fluorescence as above (T=3 h).
(§2) The Relative Fluorescence Unit values (RFU) were used to calculate the sample readings as follows: RFU(T=3h)−Control RFU(T=0)=Net RFU(T=3h)
(§3) The activity of caspase cascade activation was determined by the ratio of the net RFU value for 4-(3-bromo-4,5-dimethoxyphenyl)-3-cyano-4H-indolo[4,5-b]pyran or other test compound to that of control samples. The EC50 (nM) was determined by a sigmoidal dose-response calculation (Prism 2.0, GraphPad Software Inc.).

The next assay relates to ZR-75-1. Put plainly: Caspase cascade activation assay (N-(Ac-DEVD)-N'-ethoxycarbonyl-R110 fluorogenic substrate) in ZR-75-1 cells. Type of assay: cell-based. The following applies: ZR-75-1 human breast cancer cells, 24 h incubation; for EC50: sigmoidal dose-response, read-out: ZR-75-1 EC50 (nM) (potency). How it is done:
as §1, §2, §3

Each structure is given as a SMILES string.

This is an account of results in US7476741B2, “Substituted 4H-chromens, 2H-chromenes, chromans and analogs as activators of caspases and inducers of apoptosis and the use thereof” (Cytovia, Inc., priority 2002, dated 2009).

For the compound `COc1cc(C2CC(O)Oc3c2ccc2cc[nH]c32)cc(Br)c1OC` (stereo not drawn) [Example 30, 4-(3-Bromo-4,5-dimethoxyphenyl)-2-hydroxy-pyrrolo[3,2-h]chroman], in the assay with T-47D, the “T-47D Ratio (caspase activity)” value came to 6.8. Also, the EC50 in the assay with ZR-75-1 amounted to 379 nM. The matching figures for `COc1cc(C2CC(O)Oc3c2ccc2c3ccn2C)cc(OC)c1OC` (stereo not drawn) [Example 25, 2-Hydroxy-7-methyl-4-(3,4,5-trimethoxyphenyl)-pyrrolo[2,3-h]chroman]: 10.1 and 4 nM. For `COc1ccc2c(c1)OC(O)CC2c1cc(OC)c(OC)c(OC)c1` (stereo not drawn) [Example 23, 7-Methoxy-2-hydroxy-4-(3,4,5-trimethoxyphenyl)-chroman] the same measures were 6.0 and 23 nM. For `COc1cc(C2CC(OC)Oc3cc(N(C)C)ccc32)cc(Br)c1OC` (stereo not drawn) [Example 16, 4-(3-Bromo-4,5-dimethoxyphenyl)-7-dimethylamino-2-methoxy-chroman] the same measures were 6.8 and 275 nM. Turning to `COc1cc(C2c3ccc4[nH]ccc4c3OC(=O)C2C#N)cc(Br)c1OC` (stereo not drawn) [Example 14, 4-(3-Bromo-4,5-dimethoxyphenyl)-3-cyano-2-oxo-pyrrolo[2,3-h]chroman], in the assay on T-47D, the “T-47D Ratio (caspase activity)” value was 4.8. The EC50 with ZR-75-1 came to 278 nM. On to `COc1ccc(C2CC(=O)Oc3c2cc(OC)c(OC)c3OC)cc1` (stereo not drawn), for which the “T-47D Ratio (caspase activity)” value in the assay on T-47D came to 5.7. Also, the EC50 with ZR-75-1 is 2650 nM.

As to `COc1cc(C2C(C#N)=COc3c2ccc2c3oc(=O)n2C)cc(Br)c1OC` (stereo not drawn) [Example 7], the “T-47D Ratio (caspase activity)” value in the assay on T-47D was determined as 6.7. Further, the EC50 in the assay with ZR-75-1 was determined as 14 nM. Take `COc1cc(C2CC(OC)Oc3c2ccc2c3ccn2C)cc(Br)c1OC` (stereo not drawn) [Example 19, 4-(3-Bromo-4,5-dimethoxyphenyl)-2-methoxy-7-methyl-pyrrolo[2,3-h]chroman]: the “T-47D Ratio (caspase activity)” value in the assay on T-47D is listed as 4.5. Moreover, the EC50 in the assay with ZR-75-1 worked out at 48 nM. The matching figures for `COc1cc(C2C(C#N)=COc3cc(N(C)C)ccc32)cc(Br)c1OC` (stereo not drawn) [Example 2, 4-(3-Bromo-4,5-dimethoxyphenyl)-3-cyano-7-dimethylamino-4H-chromene]: 5.5 and 30 nM. The matching figures for `COc1cc(C2CC(O)Oc3c2ccc2cnccc32)cc(Br)c1OC` (stereo not drawn) [Example 26, 4-(3-Bromo-4,5-dimethoxyphenyl)-2-hydroxy-pyrido[3,4-h]chroman]: 1.1 and greater than 1000 nM. Consider `CC(=O)Nc1ccc2c(c1)OC(O)CC2c1cc(Cl)cc(Cl)c1` (stereo not drawn), for which the EC50 with ZR-75-1 is greater than 10000 nM. As for `COc1cc(C2CC(O)Oc3c2ccc2[nH]c(=O)[nH]c32)cc(Br)c1OC` (stereo not drawn) [Example 29, 4-(3-Bromo-4,5-dimethoxyphenyl)-7,9-dihydro-2-hydroxy-8-oxo-imidazolo[4,5-h]chroman], the “T-47D Ratio (caspase activity)” value with T-47D is on record as 6.0. Also, the EC50 in the assay on ZR-75-1 is 360 nM. The matching figures for `COC1CC(c2cc(Cl)cc(Cl)c2)c2ccc(N)cc2O1` (stereo not drawn): 1.2 and greater than 10000 nM.

As to `OC1CC(c2cc(Cl)cc(Cl)c2)c2ccc3cnccc3c2O1` (stereo not drawn), the EC50 in the assay on ZR-75-1 is greater than 1000 nM. As for `COc1cc(C2CC(O)Oc3c2ccc2[nH]ccc32)cc(Br)c1OC` (stereo not drawn) [Example 24, 4-(3-Bromo-4,5-dimethoxyphenyl)-2-hydroxy-pyrrolo[2,3-h]chroman], in the assay with T-47D, the “T-47D Ratio (caspase activity)” value turned out to be 2.5. The EC50 with ZR-75-1 turned out to be 55 nM. The matching figures for `COc1ccc2c(c1)OCC(C#N)C2c1cc(OC)c(OC)c(OC)c1` (stereo not drawn) [Example 11, 3-Cyano-7-methoxy-4-(3,4,5-trimethoxyphenyl)-chroman]: 9.6 and 101 nM. The matching figures for `COc1cc(C2CC(=O)Oc3c2ccc2c3ccn2C)cc(Br)c1OC` (stereo not drawn) [Example 21, 4-(3-Bromo-4,5-dimethoxyphenyl)-7-methyl-pyrrolo[2,3-h]chroman-2-one]: 6.2 and 127 nM. `COc1ccc2c(c1)OC(OCCN)CC2c1cc(OC)c(OC)c(OC)c1` (stereo not drawn): the EC50 in the assay with ZR-75-1 is greater than 1000 nM. Take `COc1cc(C2=CCOc3cc(N(C)C)ccc32)cc(OC)c1OC` [Example 9, 7-Dimethylamino-4-(3,4,5-trimethoxyphenyl)-2H-chromene]: in the assay on T-47D, the “T-47D Ratio (caspase activity)” value was found to be 7.8. For the same compound, the EC50 in the assay on ZR-75-1 is 177 nM. Regarding `COc1cc(C2CC(OC)Oc3cc(N)ccc32)cc(Br)c1OC` (stereo not drawn), the EC50 in the assay on ZR-75-1 was greater than 1000 nM. As to `COc1cc(C2=C(Cl)COc3cc(N(C)C)ccc32)cc(OC)c1OC` [Example 10, 3-Chloro-7-dimethylamino-4-(3,4,5-trimethoxyphenyl)-2H-chromene], the “T-47D Ratio (caspase activity)” value in the assay on T-47D was 8.2. For the same compound, the EC50 in the assay on ZR-75-1 stood at 280 nM.

For `COc1cccc(C2=CC(C)(C)Oc3cc(OC)ccc32)c1`, in the assay with ZR-75-1, the EC50 is greater than 10000 nM.

For `COc1ccc(C2CC(=O)Oc3cc(OC)c(OC)c(OC)c32)cc1` (stereo not drawn), the concentration giving a half-maximal response (EC50) in the assay with ZR-75-1 was greater than 10000 nM. Regarding `COc1cc(C2CC(O)Oc3c2ccc2c3ccn2C)cc(Br)c1OC` (stereo not drawn) [Example 18, 4-(3-Bromo-4,5-dimethoxyphenyl)-2-hydroxy-7-methyl-pyrrolo[2,3-h]chroman], in the assay on T-47D, the “T-47D Ratio (caspase activity)” value turned out to be 6.0. Moreover, in the assay with ZR-75-1, the EC50 was found to be 7.8 nM. The matching figures for `COc1ccc(C2CC(=O)Oc3c2cc(OC)c(OC)c3OC)cc1O` (stereo not drawn) [Example 32, 4-(3-Hydroxy-4-methoxyphenyl)-6,7,8-trimethoxy-chroman-2-one]: 4.4 and 3080 nM. As for `OC1CC(c2cc(Cl)cc(Cl)c2)c2ccc3[nH]ccc3c2O1` (stereo not drawn), the EC50 in the assay on ZR-75-1 was greater than 1000 nM. On to `COc1cc(C2CC(O)Oc3c2ccc2cccnc32)cc(Br)c1OC` (stereo not drawn) [Example 28, 4-(3-Bromo-4,5-dimethoxyphenyl)-2-hydroxy-pyrido[3,2-h]chroman], for which the “T-47D Ratio (caspase activity)” value in the assay with T-47D is recorded as 6.5. Besides, the EC50 in the assay with ZR-75-1 stood at 344 nM. For `COc1cc(C2CCOc3c2ccc2c3ccn2C)cc(Br)c1OC` (stereo not drawn) [Example 22, 4-(3-Bromo-4,5-dimethoxyphenyl)-7-methyl-pyrrolo[2,3-h]chroman] the same measures were 6.5 and 48 nM. As for `COc1ccc(C2CC(=O)Oc3cc(OC)c(OC)c(OC)c32)cc1OC` (stereo not drawn), the EC50 with ZR-75-1 is greater than 1000 nM. As to `COc1ccc2c(c1)OC(=O)CC2c1cc(OC)c(OC)c(OC)c1` (stereo not drawn) [Example 31, 7-Methoxy-4-(3,4,5-trimethoxyphenyl)-chroman-2-one], in the assay on T-47D, the “T-47D Ratio (caspase activity)” value is reported as 1.3. In the assay with ZR-75-1, the EC50 stood at 573 nM.

Take `Cn1ccc2c3c(ccc21)C(c1cncc(Br)c1)C(C#N)=CO3` (stereo not drawn) [Example 3, 4-(5-Bromo-pyridin-3-yl)-3-cyano-7-methyl-4H-indolo[4,5-b]pyran]: the “T-47D Ratio (caspase activity)” value in the assay with T-47D is given as 5.1. The EC50 in the assay on ZR-75-1 worked out at 3 nM. With `N#CC1=COc2ccccc2C1c1ccccc1` (stereo not drawn) [Example 6, 3-Cyano-4-phenyl-4H-chromene], the “T-47D Ratio (caspase activity)” value in the assay with T-47D was “In-active”. In the assay on ZR-75-1 (ratio of net RFU of compound to control), the “ZR-75-1 Ratio (caspase activity)” value is “In-active”. Besides, the EC50 in the assay on ZR-75-1 was 2940 nM.

With `COc1ccc2c(c1)OC(=O)C(C#N)C2c1cc(OC)c(OC)c(OC)c1` (stereo not drawn) [Example 13, 3-Cyano-7-methoxy-2-oxo-4-(3,4,5-trimethoxyphenyl)-chroman], in the assay with T-47D, the “T-47D Ratio (caspase activity)” value was determined as 4.3. Further, in the assay on ZR-75-1, the EC50 came out at 67 nM. Turning to `COc1ccc(C2c3ccc(N(C)C)cc3OC(OCCCN)C2Br)cc1OC` (stereo not drawn), the EC50 in the assay with ZR-75-1 is greater than 10000 nM. Consider `COc1cc(C2CC(O)Oc3cc(NC(C)=O)ccc32)cc(Br)c1OC` (stereo not drawn) [Example 27, N-[4-(3-Bromo-4,5-dimethoxyphenyl)-2-hydroxy-chroman-7-yl]-acetamide], for which the “T-47D Ratio (caspase activity)” value in the assay with T-47D was 1.3. The EC50 with ZR-75-1 was 548 nM.

In the case of `COc1ccc2c(c1)OC=C(C#N)C2c1cc(OC)c(OC)c(OC)c1` (stereo not drawn) [Example 8, 3-Cyano-7-methoxy-4-(3,4,5-trimethoxyphenyl)-4H-chromene], the “T-47D Ratio (caspase activity)” value with T-47D is reported as 6.7. Also, the EC50 in the assay with ZR-75-1 came out at 210 nM.

Take `COc1cc(C2CCOc3cc(N(C)C)ccc32)cc(Br)c1OC` (stereo not drawn): the EC50 with ZR-75-1 is greater than 10000 nM. Consider `COc1cccc(C2=C(Br)C(C)(C)Oc3cc(OC)ccc32)c1`, for which, in the assay on ZR-75-1, the EC50 was greater than 10000 nM.

The EC50 is the concentration giving half of the maximal effect.
